Values of other authors in patent US20070003615A1, “Nanoparticulate clopidogrel and aspirin combination formulations” (Elan Pharma International Limited, priority 2005, published 2007).
Where a name gives a salt, the structure may show the parent alone. Read-outs that look alike come from different tables or passages of the source.

Tests used:
[1] = dry air versus contact with moisture
[2] = not given; remark: listed apart in the source
[3] = in vivo

Question: For COC(=O)[C@H](c1ccccc1Cl)N1CCc2sccc2C1 [clopidogrel], which solubility in water (water, pH not stated) is on record?
Answer: practically insoluble

Question: With CC(=O)Oc1ccccc1C(=O)O [Aspirin, 2-acetoxybenzoic acid] as the molecule, how does the “stability in air / moisture” value [1] read?
Answer: stable in dry air, but gradually hydrolyses in contact with moisture

Question: Which “solubility in ethyl ether” value (ethyl ether) does the source give for COC(=O)[C@H](c1ccccc1Cl)N1CCc2sccc2C1 [Clopidogrel bisulfate, methyl (+)-(S)-α-(2-chorophenyl)-6,7-dihydrothieno[3,2-c]pyridine-5(4H)-acetate sulfate (1:1)] here?
Answer: practically insoluble

Question: What about the solubility in methanol (methanol) of the same molecule?
Answer: dissolves freely

Question: And the “solubility in methylene chloride” value (methylene chloride)?
Answer: dissolves sparingly

Question: And the “solubility at pH 1.0” value (pH 1.0)?
Answer: freely soluble

Question: And the solubility in water (water at neutral pH)?
Answer: practically insoluble

Question: What about the “rate of combined end point of cardiovascular death, MI, or stroke (and with refractory ischemia)” value ([2]; patients with acute coronary syndrome) of the same molecule?
Answer: decrease the rate

Question: And the “rate of combined end point of new ischemic stroke, new MI, and other vascular death” value ([2]; recent MI, recent stroke, or established arterial disease)?
Answer: reduce the rate

Question: What about the “gastric irritation (esophagus and stomach)” value [3] of the same molecule?
Answer: significant gastric irritation
